Earlier results in patent CN104546722A, “米铂脂质体和制法” (priority 2015, dated 2015).
Where two headings read alike, the source gives them in different places.

How the values were obtained:
[1] = test system: hepatocellular carcinoma patients (肝细胞癌患者)
[2] = test system: liver cancer patients (肝癌患者)
[3] = test system: hepatocellular carcinoma (肝细胞癌)
[4] = test system: hepatocellular carcinoma patients (肝细胞癌患者); settings: human, in vivo
[5] = after administration
[6] = not given; remark: listed apart in the source
[7] = test system: rodent liver cancer cell line AH109A (鼠肝癌细胞株AH109A)
[8] = test system: human liver cancer cell line Li-7 (人肝癌细胞株Li-7)
[9] = test system: hepatocellular carcinoma patients (肝细胞癌患者); settings: human, in vivo; remark: listed apart in the source

In the case of `CCCCCCCCCCCCCC(=O)[O-].CCCCCCCCCCCCCC(=O)[O-].N[C@@H]1CCCC[C@H]1N.[Pt+2]` [米铂, 顺-[(1R,2R)-1,2-环己二胺-N,N’]双十四酰氧基合铂], the “TEV (disappearance of mass or 100% tumour necrosis rate)” value ([1]; 22/83 patients) is given as 26.5%, the hepatic vascular injury ([1]; from administration) is given as “未发生肝血管损伤” and the 2-year survival rate ([1]; human, in vivo) is given as 75.9%. For the same compound, the 3-year survival rate ([1]; human, in vivo) was 58.4%, the CR rate ([2]; 9/16 patients) was 56% and the tolerability ([2]; 16 patients) was “耐受性好”.
In the case of `CCCCCCCCCCCCCC(=O)[O-].CCCCCCCCCCCCCC(=O)[O-].N[C@@H]1CCCC[C@H]1N.O.[Pt+2]` [米铂一水合物, (SP-4-2)-[(1R,2R)-1,2环己二氨-N,N′]二(十四酸-O)合铂一水合物], the “time to disappearance of adverse reactions” value ([3]; almost all, after administration) is listed as 4~6 weeks, the “CR rate (therapeutic effect, TE)” value ([3]; hepatocellular carcinoma) is listed as 60% and the 1-year survival rate [4] is listed as 90.1%. The 2-year survival rate [4] was 75.9%, the 3-year survival rate [4] was 58.4% and the “efficacy compared with 净司他丁斯酯” value [4] was “疗效相当”. The “safety compared with 净司他丁斯酯” value [4] was “更安全”, the “total platinum concentration in blood” value [5] was “极低,可长时间维持” and the “Cmax, reduced to” value (about 1 year after administration) was roughly 17%. The “total platinum concentration in blood (level)” value (after administration, (ng)) was “极低,属微量且维持时间长”, the “total platinum mass concentration in blood (mean)” value ([6]; after first administration) was 9.6 ng/mL and the “total platinum mass concentration in blood (mean)” value ([6]; after second administration) was 12.9 ng/mL. The “tumour cell proliferation rate” value ([7]; 20 mg/mL in suspension) was “明显降低”, the antitumour effect ([7]; single dose of suspension) was “剂量相关地抗肿瘤作用” and the “inhibition of cancer cell proliferation” value ([7]; suspension) was “以剂量相关方式抑制癌细胞增殖”. For the same compound, the “tumour cell proliferation rate” value ([8]; 20 mg/mL in suspension) was “明显降低”, the antitumour effect ([8]; single dose of suspension) was “剂量相关地抗肿瘤作用” and the “inhibition of cancer cell proliferation” value ([8]; suspension) was “以剂量相关方式抑制癌细胞增殖”. The 1-year survival rate [9] was 63.6% and the 2-year survival rate [9] was 38.2%.
